Series [1] deals with succinoxidase system of beef heart mitochondria. Description: CoQ activity: restoring succinoxidase activity of pentane-extracted beef heart mitochondria (manometric). Also noted: key to CoQ10 Act. Index: activity index relative to CoQ10 standard. It is filed as biochemical. Conditions: for Activation at 400 nMoles %: 400 nmoles of analog, relative to the response to 400 nmoles CoQ10; for Maximum Activation: 400 nm of analog per flask, percent of the response to CoQ4; for CoQ10 Act. Index: calculated from relative effectiveness, activity in terms of that of CoQ10; for Estimated nMoles Required for 50% Activation: level required to reinstate approximately 50% of maximum succinoxidase activity, 0.65-0.85 mg PEBHM; for Relative Effectiveness: molar amounts of analog and CoQ4 required to restore the same level of succinoxidase to PEBHM, relative to CoQ4. The method, then:
The CoQ activity of each analog was assessed by examining the ability of the analog to stimulate the succinoxidase activity of beef-heart mitochondria (BHM) from which the naturally occurring CoQ had been removed by pentane extraction. (Table I) Beef heart mitochondria were prepared by the method of Smith (Methods Enzymol., 10, 81 (1967). The pentane extraction was conducted as described by Szarkowska (Arch. Biochem. Biophys., 113, 519 (1966); PEBHM was frozen and used within 10 days of preparation, since pentane extraction decreases the stability of BHM. Succinoxidase activity was determined manometercally, using a Gilson differential respirometer (Iwamoto, Y., Hansen, I. L., Porter, T. H., and Folkers, K., Biochem. Biophys. Res. Comm., 58, 633 (1974), and is reported as […] of oxygen per minute per milligram of protein. A commercial soybean phospholipid preparation (Asolectin), dispersed by sonication (Fleischer, S. and Fleischer, B., Methods Enzymol., 10, 421 (1967), was used to provide phospholipid micelles, and test substances were added as solutions in ethanol. Within Table I are listed the CoQ activities of the analogs and selected reference compounds. The CoQ10 Activity Index is a measure of the effectiveness of the analogs, relative to the standard, in stimulating a submaximal response of succinoxidase activity. Specific activity of the succinoxidase system in response to stimulation by exogenous CoQ10 is given in footnote a of the Table. The quantity of analog to be added was chosen to provide a level of succinoxidase activity corresponding to the nearly linear portion of the activity: dose curve, in which succinoxidase activity stimulated is approximately proportional to the level of analog used. The second column lists the nanomolar quantity of analog required to provide a stimulation of about half of the maximum response. The relative response of the succinoxidase system to 400 nmol of each analog is listed in the third column of the Table. This level of analog is sufficient to insure significant excess over the stoichiometric amount, and maximum response to CoQ4 is obtained at one-tenth to one-twentieth of this dose level. The response to 400 nmol of CoQ10 is lower than is the response to other components listed. The very long side-chain of CoQ10, the natural coenzyme, may hinder the transport of exogenous CoQ10 to the active site.

The conditions of series [2]: literature / general knowledge; cited from earlier work.
Another series deals with complex III (Bos taurus, UniProt P00157+P13272). The series can be described thus: Reduction of cytochrome c by reduced CoQ and analogs catalyzed by complex III. It is filed as biochemical. The note with it: for nMoles Cytochrome c Reduced/min / Non-enzymatic Rate of Cytochrome c Reduction: 10 μM reduced CoQ or analog; for nMoles Cytochrome c Reduced/min: 2 μg complex III, 8 μM cytochrome c; for Non-enzymatic Rate of Cytochrome c Reduction: blank without complex III; for % Inhibition by Antimycin A: antimycin A 1 μg/ml. The method, then: Reduction of cytochrome c was measured at 550-540 nm. The reaction mixtur
contained in 1.0 ml: […] KP1, pH 7.5; 0.05 mM EDTA; 8 μM
cytochrome c1; 10 μM reduced CoQ or analog and 2 μg complex
III. When indicated, antimycin A was added to the assay medium at 1
μg/ml. An extinction coefficient of 19 mM^-^1 was used for […]

Series [3] relates to oxidative phosphorylation at site I (ETPH particles). The series can be described thus: Assay of CoQ and analogs for oxidative phosphorylation at site I with ETPH particles. The series is classed as biochemical. The note with it: CoQ or analog 0.12 nM (footnote 0.12 mM); for μmoles NADH /min/mg: 200 μg ETPH particles, no rotenone; for μmoles NADH min/mg +Rotenone / % Inhibition by Rotenone: rotenone 2 μM. Also noted: Δ NADH / Δ G6P: unit not given here. Here is the method: Assays were performed with 200 μg of ETPH particles as described by
Schatz and Racker (J. Biol. Chem., 241, 1429 (1966)). The concentration o
the CoQ compounds was 0.12 mM. Rotenone was added at 2 μM

Each structure is given as a SMILES string.

`CCC=CCC=CCC=CCCCCCCCCCC1=C(C)C(=O)C(OC)=C(OC)C1=O` [10', 13', 16'-Nonadecatrienyl, 2,3-Dimethoxy-5-methyl-6-(10',13' ,16'-nonadecatrienyl)-1,4-benzoquinone]: in series [1], the “Activation at 400 nMoles %” value was found to be 128%, the “Maximum Activation” value turned out to be 100%, the “CoQ10 Act. Index” value is 10.2 and the “Estimated nMoles Required for 50% Activation” value is 4.1 nmol. Also, the “Relative Effectiveness” value in series [1] came out at 49%.
As to `CCCCCC=CCC=CCCCCCCCC1=C(C)C(=O)C(OC)=C(OC)C1=O` [8', 11'-Heptadecadienyl, 2,3-Dimethoxy-5-methyl-6-(8',11'-heptadecadienyl)-1,4-benzoquinone], in series [1], the “Activation at 400 nMoles %” value was determined as 122%, the “Maximum Activation” value is on record as 95%, the “CoQ10 Act. Index” value is reported as 9.0 and the “Estimated nMoles Required for 50% Activation” value is 4.7 nmol. Moreover, in series [1], the “Relative Effectiveness” value was 43%.
The corresponding values for `CCCCCCC=CCCCCCCCC1=C(C)C(=O)C(OC)=C(OC)C1=O` [8'-Pentadecenyl] are 119%, 93%, 11.1, 3.4 nmol and 58%.
Take `CC(C)=CCC/C(C)=C/CC/C(C)=C/CC1=CC(=O)C(C)=C(C)C1=O` [plastoquinone-3]: in series [2], the “chemical stability of isoprenoid quinones” value (“chemical stability” for short) is given as “extremely unstable”.
Turning to `CCC=CCC=CCC=CCCCCCCCC1=C(C)C(=O)C(OC)=C(OC)C1=O` [8', 11', 14'-Heptadecatrienyl, 2,3 -Dimethoxy-5-methyl-6-(8',11',14'-heptadecatrienyl)-1,4-benzoquinone], in series [1], the “Activation at 400 nMoles %” value is reported as 123%, the “Maximum Activation” value came out at 96%, the “CoQ10 Act. Index” value was 12.5 and the “Estimated nMoles Required for 50% Activation” value was 3.3 nmol. Moreover, in series [1], the “Relative Effectiveness” value was determined as 60%.
Turning to `COC1=C(OC)C(=O)C(C/C=C(\C)CC/C=C(\C)CC/C=C(\C)CCC=C(C)C)=C(C)C1=O` [CoQ4, reference compound], in series [1], the “amount giving full restoration of activity of succinoxidase in PEBHM” value is “more than 20 nmoles”, the “Activation at 400 nMoles %” value is reported as 128%, the “Maximum Activation” value came out at 100% and the “CoQ10 Act. Index” value is reported as 20.8. Also, in series [1], the “Estimated nMoles Required for 50% Activation” value was 2.0 nmol and the “Relative Effectiveness” value was determined as 100%. In addition, the “maximum activity of succinoxidase in PEBHM” value in series [1] (full restoration, more than 20 nmoles of CoQ4) is reported as 0.700 μatm O2 /mg protein min. Moreover, in series [1] (interpretation of Table II), the “ability to elicit maximum activation of succinoxidase” value is recorded as “can elicit maximum activation” and the “effectiveness / utilization in the succinoxidase mitochondrial system” value is “effectively utilized”.
On to `CCCCCC=CCC=CCC=CCC=CCCCC1=C(C)C(=O)C(OC)=C(OC)C1=O` [4', 7', 10', 13'-Nonadecatetraenyl, 2,3-Dimethoxy-5-methyl-6-(4',7',10',13'-nonadecatetraenyl)-1,4-benzoquinone], for which, in series [1], the “Activation at 400 nMoles %” value was found to be 118%, the “Maximum Activation” value worked out at 92%, the “CoQ10 Act. Index” value was 7.7 and the “Estimated nMoles Required for 50% Activation” value is 5.4 nmol. The “Relative Effectiveness” value in series [1] stood at 37%.
The like results for `CCCCCCCCC=CCCCCCCCCCC1=C(C)C(=O)C(OC)=C(OC)C1=O` [10'-Nonadecenyl, 2,3-Dimethoxy-5-methyl-6-(10'-nonadecenyl)-1,4-benzoquinone] were, in that order, 123%, 96%, 5.8, 7.1 nmol and 28%.
The corresponding values for `CCCCCCCCC=CCCCCCCCC1=C(C)C(=O)C(OC)=C(OC)C1=O` [8'-Heptadecenyl, 2,3-Dimethoxy-5-methyl-6-(8'-heptadecenyl)-1,4-benzoquinone] are 121%, 94%, 5.8, 7.1 nmol and 28%.
The corresponding values for `CCCCCC=CCC=CCCCCCCCCCC1=C(C)C(=O)C(OC)=C(OC)C1=O` [10', 13'-Nonadecadienyl] are 123%, 96%, 7.3, 5.7 nmol and 35%.
As for `COC1=C(OC)C(=O)C(CC=C(C)C)=C(C)C1=O` [Q1, reference compound], the “chemical stability” value in series [2] was “relative chemical instability”. Besides, at complex III, the “nMoles Cytochrome c Reduced/min” value turned out to be 12.4 nmol/min, the “Non-enzymatic Rate of Cytochrome c Reduction” value was 0.6 nmol/min and the “% Inhibition by Antimycin A” value came out at 100%. In series [3], the “P/NADH Ratio” value came out at 0.522, the “Δ G6P” value was determined as 0.046, the “Δ NADH” value was determined as 0.088 and the “μmoles NADH /min/mg” value stood at 0.45 μmoles NADH /min/mg. In series [3], the “μmoles NADH min/mg +Rotenone” value came out at 0.03 μmoles NADH min/mg and the “% Inhibition by Rotenone” value turned out to be 93%.
With `COC1=C(OC)C(=O)C(C/C=C(\C)CCC=C(C)C)=C(C)C1=O` [Q2, reference compound], in series [2], the “chemical stability” value was “relative chemical instability”. Moreover, at complex III, the “nMoles Cytochrome c Reduced/min” value came out at 27.4 nmol/min, the “Non-enzymatic Rate of Cytochrome c Reduction” value amounted to 0.2 nmol/min and the “% Inhibition by Antimycin A” value came out at 98%. Further, in series [3], the “P/NADH Ratio” value amounted to 0.57, the “Δ G6P” value was 0.045, the “Δ NADH” value amounted to 0.079 and the “μmoles NADH /min/mg” value is on record as 0.25 μmoles NADH /min/mg. Moreover, in series [3], the “μmoles NADH min/mg +Rotenone” value worked out at 0.02 μmoles NADH min/mg and the “% Inhibition by Rotenone” value came out at 92%.
On to `CCCCCCCCCCCCCCCCCCCCC1=C(C)C(=O)C(OC)=C(OC)C1=O` [Eicosyl, 2,3-Dimethoxy-5-methyl-6-n-eicosyl-1,4-benzoquinone], for which, in series [1], the “Activation at 400 nMoles %” value came to 79%, the “Maximum Activation” value turned out to be 62%, the “CoQ10 Act. Index” value is reported as 0.9 and the “Estimated nMoles Required for 50% Activation” value was 44.4 nmol. In addition, the “Relative Effectiveness” value in series [1] turned out to be 4.5%. The “ability to elicit maximum activation of succinoxidase” value in series [1] (interpretation of Table II) is recorded as “cannot stimulate maximum activation”.
On to `COC1=C(OC)C(=O)C(C/C=C(\C)CC/C=C(\C)CC/C=C(\C)CC/C=C(\C)CC/C=C(\C)CC/C=C(\C)CCC=C(C)C)=C(C)C1=O` [CoQ7, reference compound], for which, in series [1], the “Activation at 400 nMoles %” value is recorded as 115%, the “Maximum Activation” value was determined as 90%, the “CoQ10 Act. Index” value is given as 1.7 and the “Estimated nMoles Required for 50% Activation” value was 24.4 nmol. Further, the “Relative Effectiveness” value in series [1] is reported as 8.2%.

The values above are taken from patent publication US3974187A, “Synthetic analogs having the activity of naturally occurring forms of coenzyme Q” (priority 1975, dated 1976).
